# Like-named read-outs stand apart in the source and are kept apart here.
# Legend:
# [1] = tested on: isolated rat soleus muscles; test: Recovery of nerve-stimulated contractile force in isolated rat soleus nerve-muscle preparation exposed to tubocurarine; conditions: for activation at 50 µM: 40 min, read-out: Point increase (%) of initial force that was restored
# Protocol: Recovery of force is quantified as the percentage of the force prior to tubocurarine that is recovered by the compound.
# The current disclosure relates to compounds that inhibit CIC-1 ion channels and increase muscle excitability and thereby improve muscle function in clinical conditions where muscle activation is failing. Such conditions result in loss of contractile function of skeletal muscle, weakness and excessive fatigue. In this series of experiments the compounds were tested for their ability to restore contractile function of isolated rat muscle when the neuromuscular transmission had been compromised akin to neuromuscular disorders.
# Experimentally, soleus muscles from 4-5 wk old rats were isolated with the motor nerve remaining attached. The nerve-muscle preparations were mounted in experimental setups that enabled electrical stimulation of the motor nerve. Stimulation of the motor nerve led to activation of the muscle fibres and ensuing force production that was recorded.
# After mounting the nerve-muscle preparation in the experimental setup, the contractile function of the muscle was initially assessed under the control conditions (FIG. 2A). […] The experimental condition mimics the failing neuromuscular transmission in a range of neuromuscular disorders. After addition of tubocurarine the contractile force declined over the next 90 mins to 10-50% of the control force. 50 μM of the test compound was then added and the contractile force recovered despite the continued presence of tubocurarine. To quantify the ability of the compound to restore force the percentage of the initial force that was restored was determined after 40 mins of compound exposure (FIG. 2B) and the point increase is reported in Table 3.
# [2] = tested on: female Lewis rats; test: In situ isometric hindlimb force in anaesthetised rats under partial neuromuscular block by Cisatracurium; format: in vivo; conditions: Rattus norvegicus, iv, read-out: increase in tetanic force
# Protocol: Isometric hindlimb force was measured in 12-week old female Lewis rats in the presence and absence of compound.
# Rats were placed under anesthesia with isoflurane (2-4%), intubated and subsequently connected to a micro ventilator (Microvent 1, Hallowell EMC, US). Two stimulation electrodes were inserted through the skin to stimulate the sciatic nerve. A small incision was made proximal to the ankle, to expose the Achilles tendon, which was tied by cotton string, and connected to a force transducer (Fort250, World Precision Instruments) with adjustable position (Vernier control). The Achilles tendon was then cut distal to the attached cotton string. The rat was placed on a heated pad, and to prevent movement artefacts from contraction of the ankle dorsiflexors, the foot was fixated by tape on a footplate.
# Muscle contractile properties were assessed by applying an electrical current (under supramaximal voltage conditions) to the nerve and recording the force generated by the muscle. The muscle was stretched until maximal force was obtained, when assessed by 2 Hz stimulation. Isometric force was measured every 30 seconds at 12 Hz (Twitch), 10 pulses, and at every 5 minutes at 80 Hz (Tetanic) for 1 second (80 pulses). This stimulation pattern was employed throughout the experiment, expect in few cases where 80 Hz stimulation was replaced by 12 Hz (10 pulses). […] When the level of neuromuscular inhibition was stable, the test article was injected i.v. at the chosen concentration. The effect of test article was assessed on its ability to increase force generated from the stimulation pattern applied. The effect was assessed in the ability to increase force per se (tetanic, 80 Hz, stimulation), and the ratio between individual twitch peaks (12 Hz stimulation). The effect was monitored for at least 1 hour after injection of test article. In addition, the time from injection of test article to maximal effect on force (both twitch and tetanic) was noted and the time for the effect to disappear (return to baseline), if possible. When appropriate the infusion of neuromuscular blocking agent was ceased, with the stimulation pattern continued, and the return of force to control levels was monitored. Animals were sacrificed by cervical dislocation while still fully sedated.
# [3] = molecular target: T1, CIC-1 ion channel (Rattus norvegicus, UniProt P35524); test: Electrophysiological measurement (Gm, three micro-electrode technique) of compound inhibition of CIC-1 in rat soleus muscle fibres; format: cell-based; conditions: whole rat soleus muscle, Gm at four increasing concentrations, approx. 30° C., mean ± spread
# T1 construct: from tissue; host or cells: intact soleus muscle of 12-14 week old Wistar rats
# T1 sequence (P35524 1-994): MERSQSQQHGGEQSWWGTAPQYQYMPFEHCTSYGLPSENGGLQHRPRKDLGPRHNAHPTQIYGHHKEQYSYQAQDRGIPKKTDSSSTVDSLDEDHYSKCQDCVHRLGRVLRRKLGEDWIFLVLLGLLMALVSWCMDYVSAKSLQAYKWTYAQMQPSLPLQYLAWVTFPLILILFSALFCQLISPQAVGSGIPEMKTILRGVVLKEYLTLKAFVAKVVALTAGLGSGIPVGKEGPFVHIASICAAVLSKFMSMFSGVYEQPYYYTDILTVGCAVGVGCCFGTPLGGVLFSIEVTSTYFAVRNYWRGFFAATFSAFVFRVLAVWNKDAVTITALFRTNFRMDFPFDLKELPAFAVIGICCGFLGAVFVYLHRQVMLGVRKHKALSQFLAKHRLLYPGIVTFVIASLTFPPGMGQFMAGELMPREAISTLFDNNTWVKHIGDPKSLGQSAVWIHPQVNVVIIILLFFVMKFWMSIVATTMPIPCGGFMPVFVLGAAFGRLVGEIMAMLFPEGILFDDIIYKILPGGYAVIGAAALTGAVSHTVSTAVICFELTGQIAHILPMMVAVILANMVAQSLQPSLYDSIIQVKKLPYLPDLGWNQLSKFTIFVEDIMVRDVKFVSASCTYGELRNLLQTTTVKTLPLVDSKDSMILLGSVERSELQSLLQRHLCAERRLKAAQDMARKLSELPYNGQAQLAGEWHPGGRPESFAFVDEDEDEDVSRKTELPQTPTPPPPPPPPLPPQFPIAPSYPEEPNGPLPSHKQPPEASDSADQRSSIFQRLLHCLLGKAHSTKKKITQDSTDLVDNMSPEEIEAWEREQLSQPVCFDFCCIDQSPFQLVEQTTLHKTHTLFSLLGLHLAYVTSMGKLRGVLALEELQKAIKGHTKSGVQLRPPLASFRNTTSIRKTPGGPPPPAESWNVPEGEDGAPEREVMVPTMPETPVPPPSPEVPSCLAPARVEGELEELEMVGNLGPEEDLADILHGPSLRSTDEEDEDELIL
# [4] = 50 μM test compound, after 40 mins exposure, 115 nM tubocurarine for 90 mins, rat soleus
Molecule,"activation at 50 µM [1, 4] [%]",EC50 [3] [nM],further results
"C[C@H](Oc1ccc(Br)cc1C(C)(F)F)C(=O)O [Compound A-4, (2S)-2-[4-bromo-2-(1,1-difluoroethyl)phenoxy]propanoic acid]",34,,"change in vivo at 21.6 mg/kg ([2]; 21.6 mg/kg i.v., 80 Hz stimulation, Cisatracurium block): 34%"
"CCC(F)(F)c1cc(Cl)ccc1O[C@@H](C)C(=O)O [Compound A-5, (2S)-2-[4-chloro-2-(1,1-difluoropropyl)phenoxy]propanoic acid]",,4000 ± 2100,activation at 50 µM ([1]; Rattus norvegicus): 53%; change in vivo at 10.5 mg/kg [2]: 47%
"CCC(F)(F)c1cc(Br)ccc1OCC(=O)O [Compound A-6, 2-[4-bromo-2-(1,1-difluoropropyl)phenoxy]acetic acid]",35,7500 ± 2900,
"CC(C)C(F)(F)c1cc(Br)ccc1O[C@@H](C)C(=O)O [Compound A-7, (2S)-2-[4-bromo-2-(1,1-difluoro-2-methylpropyl)phenoxy]propanoic acid]",42,3500 ± 700,"change in vivo at 25.1 mg/kg ([2]; 25.1 mg/kg i.v., 80 Hz stimulation, Cisatracurium block): 64%"
"CCC(F)(F)c1cc(Br)ccc1O[C@@H](CF)C(=O)O [Compound A-11, (2R)-2-[4-bromo-2-(1,1-difluoropropyl)phenoxy]-3-fluoropropanoic acid]",,1600 ± 200,"change in vivo at 17.6 mg/kg ([2]; 17.6 mg/kg i.v., 80 Hz stimulation, Cisatracurium block): 44%"
"CC(F)(F)c1cc(Br)ccc1O[C@@H](CF)C(=O)O [Compound A-16, (2R)-2-[4-bromo-2-(1,1-difluoroethyl)phenoxy]-3-fluoropropanoic acid]",,3200 ± 800,"change in vivo at 22.9 mg/kg ([2]; 22.9 mg/kg i.v., 80 Hz stimulation, Cisatracurium block): 46%"
"CCC(F)(F)c1cc(Br)ccc1O[C@@H](CCl)C(=O)O [Compound A-17, (2R)-2-[4-bromo-2-(1,1-difluoropropyl)phenoxy]-3-chloropropanoic acid]",48,,
"C#CC[C@H](Oc1ccc(Br)cc1C(F)(F)CC)C(=O)O [Compound A-18, (2S)-2-[4-bromo-2-(1,1-difluoropropyl)phenoxy]pent-4-ynoic acid]",31,4800 ± 1100,
"C#CC[C@H](Oc1ccc(Cl)cc1C(C)(F)F)C(=O)O [Compound A-19, (2S)-2-[4-chloro-2-(1,1-difluoroethyl)phenoxy]pent-4-ynoic acid]",27,,
"CCC(F)(F)c1cc(I)ccc1O[C@@H](C)C(=O)O [Compound A-20, (2S)-2-[2-(1,1-difluoropropyl)-4-iodophenoxy]propanoic acid]",44,1900,
"CCC(F)(F)c1cc(Br)c(F)cc1O[C@@H](C)C(=O)O [Compound A-24, (2S)-2-[4-bromo-2-(1,1-difluoropropyl)-5-fluorophenoxy]propanoic acid]",,900 ± 200,
"CCC(F)(F)c1cc(Br)c(F)cc1O[C@@H](CF)C(=O)O [Compound A-34, (2R)-2-[4-bromo-2-(1,1-difluoropropyl)-5-fluorophenoxy]-3-fluoropropanoic acid]",,1100 ± 200,
"C=Cc1ccc(O[C@@H](C)C(=O)O)c(C(F)(F)CC)c1 [Compound A-35, (2S)-2-[2-(1,1-difluoropropyl)-4-ethenylphenoxy]propanoic acid]",20,,
"CC(C)C(F)(F)c1cc(Br)ccc1OCC(=O)O [Compound A-38, 2-[4-bromo-2-(1,1-difluoro-2-methylpropyl)phenoxy]acetic acid]",,7400,
"CCC(F)(F)c1cc(Cl)c(F)cc1OCC(=O)O [Compound A-39, 2-[4-chloro-2-(1,1-difluoropropyl)-5-fluorophenoxy]acetic acid]",,7900 ± 3100,activation at 50 µM ([1]; Rattus norvegicus): 37%
"CCC(F)(F)c1cc(Cl)c(F)cc1O[C@@H](CF)C(=O)O [Compound A-41, (2R)-2-[4-chloro-2-(1,1-difluoropropyl)-5-fluorophenoxy]-3-fluoropropanoic acid]",,1100 ± 400,
"CCC(F)(F)c1cc(Cl)c(Cl)cc1O[C@@H](C)C(=O)O [Compound A-42, (2S)-2-[4,5-dichloro-2-(1,1-difluoropropyl)phenoxy]propanoic acid]",,2500 ± 300,activation at 50 µM ([1]; Rattus norvegicus): 30%
"CC(F)(F)c1cc(Br)c(F)cc1O[C@@H](CF)C(=O)O [Compound A-43, (2R)-2-[4-bromo-2-(1,1-difluoroethyl)-5-fluorophenoxy]-3-fluoropropanoic acid]",,2900 ± 900,
"CC(F)(F)c1cc(Cl)c(Cl)cc1O[C@@H](CF)C(=O)O [Compound A-44, (2R)-2-[4,5-dichloro-2-(1,1-difluoroethyl)phenoxy]-3-fluoropropanoic acid]",24,,
"C=Cc1cc(C(F)(F)CC)c(O[C@@H](C)C(=O)O)cc1F [Compound A-47, (2S)-2-[2-(1,1-difluoropropyl)-4-ethenyl-5-fluorophenoxy]propanoic acid]",31,,
"CC[C@H](Oc1cc(F)c(Br)cc1C(F)(F)CC)C(=O)O [Compound A-48, (2S)-2-[4-bromo-2-(1,1-difluoropropyl)-5-fluorophenoxy]butanoic acid]",,2000,
"CC[C@H](Oc1cc(F)c(Cl)cc1C(F)(F)CC)C(=O)O [Compound A-49, (2S)-2-[4-chloro-2-(1,1-difluoropropyl)-5-fluorophenoxy]butanoic acid]",24,,
"CCC(F)(F)c1cc([N+](=O)[O-])ccc1O[C@@H](C)C(=O)O [Compound A-51, (2S)-2-[2-(1,1-difluoropropyl)-4-nitrophenoxy]propanoic acid]",37,,
"CCC(F)(F)c1cc(F)c(F)cc1O[C@@H](CF)C(=O)O [Compound A-54, (2R)-2-[2-(1,1-difluoropropyl)-4,5-difluorophenoxy]-3-fluoropropanoic acid]",36,,
"(2S)-2-[4-bromo-2-(1,1-difluoropropyl)(3,5,6-^2H3)phenoxy]propanoic acid [Compound A-30]",,,"Point increase (%) of initial force that was restored [1, 4]: 44%"
"(2S)-2-[4-bromo-2-(1,1-difluoropropyl)phenoxy](2-^2H)propanoic acid [Compound A-21]",,2600,"Point increase (%) of initial force that was restored [1, 4]: 44%"
